# Where “and” joins values, the source holds several entries; their conditions need not be identical. Equal values may be shown once.
# Tested on: 889142-216-R-J1-PDC complex spheroid viability
# Assay: Anticancer human tumor 889142-216-R-J1-PDC patient-derived bladder carcinoma cell line growth inhibition [POLQ]
# Conditions: for viability, T/C: stronger effect = lower value
# Protocol: Multicellular complex tumor spheroid response to Polymerase (POL) inhibitors (novobiocin, ART-558, RP6685) in combination with a variety of drugs and investigational agents in selected tumor cell lines
# The POL inhibitors (novobiocin, ART-558, and RP6685) were evaluated both individually and in combination with standard of care and investigational anticancer small molecules within a complex spheroid model of solid tumors. . Complex spheroids include a stromal component modeled by human endothelial cells (HUVEC) and fibroblasts modeled by human mesenchymal stem cells (MSCs). The concentration ranges selected for each drug and investigational agent were based upon clinically achievable concentrations if the clinical Cmax of the agent was known.
# Compounds. The drugs and investigational agents: novobiocin (NSC847541), ART-558 (NSC835418), RP-6685 (NSC848927), peposertib (NSC802822), ceralasertib (NSC780249), elimusertib (NSC800525), camonsertib (NSC841442), AZD-1390 (NSC803789), olaparib (NSC753686), talazoparib (NSC767125), rucaparib (NSC756644), sotorasib (NSC818433), MRTX-1133 (NSC836407), SN-38 (NSC673596), topotecan (NSC609699), epotoside (NSC141540), doxorubicin (NSC123127), gemcitabine (NSC613327), 5-fluorouracil (NSC19893), paclitaxel (NSC125973), vemurafenib (NSC761431), MSA-2 (NSC828583), SN-011 (NSC837082), adavosertib (NSC754352), prexasertib (NSC758257), carboplatin (NSC241240) and oxaliplatin (NSC266046), were obtained from the National Cancer Institute (NCI) Developmental Therapeutics Program Chemical Repository (21). The FDA-approved anticancer drug set is available from the Developmental Therapeutics Program at https://dtp.cancer.gov/organization/dscb/obtaining/. […] The stock solutions were prepared in dimethyl sulfoxide (DMSO, Sigma-Aldrich, St. Louis, MO, cat. D2650), except for the platinum compounds which were prepared in saline (Quality Biological, Gaithersburg, MD, cat. 114-055-101), at 800-fold the tested concentration and stored at -70 degrees C prior to their use. All drugs and investigational agents were tested over a range starting from a high concentration at or near the clinical Cmax and decreasing in half-log increments. If the clinical Cmax for an agent had not been determined, the highest concentration tested was 10 microM, except for SN-38, which was tested at a high concentration of 1 microM.
# Cell Culture. All cells were maintained in an incubator at 37 degrees C and 5% CO2 with 95% humidity. The PDC lines were cultured according to standard operating procedures established by the NCI PDMR (https://pdmr.cancer.gov). Table 3 of the manuscript, lists the cell lines along with the number of the three cell types plated to form the mct-spheroids and media for tumor cell growth. After thawing, all PDC lines, except 997537-175-T-J1-PDC and 415267-285-R-J2-PDC, were cultured in Matrigel-coated flasks prepared with a working solution of 1X Ham's F-12 nutrient mix, without supplementation (Thermo Fisher Scientific, cat. 11765054), 100 U/mL penicillin-streptomycin (Thermo Fisher Scientific, cat. 15140122), and 2.5% Matrigel (Corning Inc., Corning, NY, cat. 354248) for the first three passages. The two PDC lines 997537-175-T-J1-PDC and 415267-285-R-J2-PDC were cultured on uncoated flasks. The 857933-349-R-J2-PDC line was cultured in 6C/Colon 1B media containing advanced DMEM/F-12 (Thermo Fisher Scientific, cat. 12634028), 10 mM HEPES (Thermo Fisher Scientific, cat. 15630080), 1X GlutaMAX supplement (Thermo Fisher Scientific, cat. 35050061), 0.1 mg/mL primocin (InvivoGen, San Diego, CA, cat. ant-pm-2), 10% defined fetal bovine serum, heat inactivated (HyClone Laboratories Inc., Logan, UT, cat. SH30070.03HI), 50% L-WRN conditioned media (ATCC, cat. CRL-3276), 1.25 mM N-Acetyl-L-cysteine (Sigma-Aldrich, cat. A9165), 10 mM nicotinamide (Sigma-Aldrich, cat. N0636), 1X B-27 supplement (Thermo Fisher Scientific, cat. 17504044), 1X N-2 supplement (Thermo Fisher Scientific, cat. […]
# 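Also: spheroids exposed to compounds for seven days.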
# 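For viability, T/C in this document: 100% = DMSO vehicle control viability.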
compound,measurement,setting,value
C=CC(=O)N1CCN(c2nc(=O)n(-c3c(C)ccnc3C(C)C)c3nc(-c4c(O)cccc4F)c(F)cc23)C(C)C1 (stereo not given),"viability, T/C",compound 0.0316 µM,85.5% and 87.6% and 108%
same,"viability, T/C",compound 0.1 µM,90.5% and 106% and 83.7%
same,"viability, T/C",compound 0.316 µM,123% and 117% and 93.5%
same,"viability, T/C",compound 1 µM,92.1% and 126% and 116%
same,"viability, T/C",compound 3.16 µM,150% and 108% and 109%
same,"viability, T/C",compound 10 µM,106% and 105% and 97.8%
same,IC50,curve of compound,> 10 µM
CNCc1ccc(-c2[nH]c3cc(F)cc4c3c2CCNC4=O)cc1,"viability, T/C",compound 0.0316 µM,113% and 99.8% and 88.3%
same,"viability, T/C",compound 0.1 µM,91.7% and 96.3% and 114%
same,"viability, T/C",compound 0.316 µM,86% and 112% and 90.9%
same,"viability, T/C",compound 1 µM,88% and 96.9% and 104%
same,"viability, T/C",compound 3.16 µM,87.2% and 83.7% and 97.5%
same,"viability, T/C",compound 10 µM,76.9% and 70.9% and 70.5%
same,IC50,curve of compound,> 10 µM
COc1ccc([C@@H](O)c2cc(-c3ncnc4cc(N5CCOCC5)ccc34)c(F)cc2Cl)nn1 + Cc1cccc(N(C)C(=O)C2C(O)CCN2c2nc(C)cc(C(F)(F)F)c2C#N)c1,IC50,"curve of first compound, second compound 0.0316 µM",3.76 µM
same,IC50,"curve of first compound, second compound 0.1 µM",2.71 µM
same,IC50,"curve of first compound, second compound 0.316 µM",2.26 µM
same,IC50,"curve of first compound, second compound 1 µM",2.85 µM
same,IC50,"curve of first compound, second compound 3.16 µM",3.89 µM
same,IC50,"curve of first compound, second compound 10 µM",1.85 µM
same,"viability, T/C","second compound 0.0316 µM, first compound 0.0316 µM",123%
same,"viability, T/C","second compound 0.0316 µM, first compound 0.1 µM",81.2%
same,"viability, T/C","second compound 0.0316 µM, first compound 0.316 µM",102%
same,"viability, T/C","second compound 0.0316 µM, first compound 1 µM",69.6%
same,"viability, T/C","second compound 0.0316 µM, first compound 3.16 µM",47.6%
same,"viability, T/C","second compound 0.0316 µM, first compound 10 µM",36.8%
same,"viability, T/C","second compound 0.1 µM, first compound 0.0316 µM",99.5%
same,"viability, T/C","second compound 0.1 µM, first compound 0.1 µM",98.8%
same,"viability, T/C","second compound 0.1 µM, first compound 0.316 µM",97.7%
same,"viability, T/C","second compound 0.1 µM, first compound 1 µM",67.1%
same,"viability, T/C","second compound 0.1 µM, first compound 3.16 µM",51.1%
same,"viability, T/C","second compound 0.1 µM, first compound 10 µM",40.9%
same,"viability, T/C","second compound 0.316 µM, first compound 0.0316 µM",106%
same,"viability, T/C","second compound 0.316 µM, first compound 0.1 µM",103%
same,"viability, T/C","second compound 0.316 µM, first compound 0.316 µM",90.3%
same,"viability, T/C","second compound 0.316 µM, first compound 1 µM",59.6%
same,"viability, T/C","second compound 0.316 µM, first compound 3.16 µM",49.7%
same,"viability, T/C","second compound 0.316 µM, first compound 10 µM",35.5%
same,"viability, T/C","second compound 1 µM, first compound 0.0316 µM",103%
same,"viability, T/C","second compound 1 µM, first compound 0.1 µM",112%
same,"viability, T/C","second compound 1 µM, first compound 0.316 µM",90.3%
same,"viability, T/C","second compound 1 µM, first compound 1 µM",66.7%
same,"viability, T/C","second compound 1 µM, first compound 3.16 µM",52.5%
same,"viability, T/C","second compound 1 µM, first compound 10 µM",35.9%
same,"viability, T/C","second compound 3.16 µM, first compound 0.0316 µM",94.8%
same,"viability, T/C","second compound 3.16 µM, first compound 0.1 µM",79.8%
same,"viability, T/C","second compound 3.16 µM, first compound 0.316 µM",64.4%
same,"viability, T/C","second compound 3.16 µM, first compound 1 µM",70%
same,"viability, T/C","second compound 3.16 µM, first compound 3.16 µM",58.6%
same,"viability, T/C","second compound 3.16 µM, first compound 10 µM",35.2%
same,"viability, T/C","second compound 10 µM, first compound 0.0316 µM",91.2%
same,"viability, T/C","second compound 10 µM, first compound 0.1 µM",80.5%
same,"viability, T/C","second compound 10 µM, first compound 0.316 µM",63.6%
same,"viability, T/C","second compound 10 µM, first compound 1 µM",53.6%
same,"viability, T/C","second compound 10 µM, first compound 3.16 µM",53.6%
same,"viability, T/C","second compound 10 µM, first compound 10 µM",28.9%
C#Cc1c(F)ccc2cc(O)cc(-c3ncc4c(N5CC6CCC(C5)N6)nc(OCC56CCCN5CC(F)C6)nc4c3F)c12 (stereo not given),"viability, T/C",compound 0.0316 µM,97.4% and 84.7% and 98.7%
same,"viability, T/C",compound 0.1 µM,87.7% and 85.2% and 98.1%
same,"viability, T/C",compound 0.316 µM,79.3% and 79.1% and 79.6%
same,"viability, T/C",compound 1 µM,67.5% and 74.8% and 66.9%
same,"viability, T/C",compound 3.16 µM,80.7% and 73.1% and 71.4%
same,"viability, T/C",compound 10 µM,37.6% and 42.5% and 32%
same,IC50,curve of compound,6.76 µM and 7.47 µM and 4.99 µM
COc1cc(C2c3cc4c(cc3C(OC3OC5COC(C)OC5C(O)C3O)C3COC(=O)C23)OCO4)cc(OC)c1O (stereo not given),"viability, T/C",compound 0.0316 µM,93.9% and 87.6% and 89.9%
same,"viability, T/C",compound 0.1 µM,82.4% and 88.4% and 76.9%
same,"viability, T/C",compound 0.316 µM,77.6% and 73% and 63.3%
same,"viability, T/C",compound 1 µM,58.1% and 80.3% and 53.2%
same,"viability, T/C",compound 3.16 µM,63.4% and 68.3% and 65.3%
same,"viability, T/C",compound 10 µM,54.3% and 62.4% and 58.1%
same,IC50,curve of compound,> 10 µM
